Source: ChEMBL document CHEMBL6134808, “Sertraline and Astemizole Enhance the Deubiquitinase Activity of USP7 by Binding to Its Switching Loop Region” (J Med Chem, 2025)
Active and inactive are the calls of the source. The calls are words filed in the database; no cut-off is given here.

How the values were obtained:
[1] = test system: Ubiquitin carboxyl-terminal hydrolase 7 (Homo sapiens), Q93009 [L757P]; conditions: filed as activator, time 15.0 min
[2] = biological target: T1, Ubiquitin carboxyl-terminal hydrolase 7 (Homo sapiens, UniProt Q93009); conditions: filed as activator
Target sequence in this assay (Q93009 whole entry, looked up): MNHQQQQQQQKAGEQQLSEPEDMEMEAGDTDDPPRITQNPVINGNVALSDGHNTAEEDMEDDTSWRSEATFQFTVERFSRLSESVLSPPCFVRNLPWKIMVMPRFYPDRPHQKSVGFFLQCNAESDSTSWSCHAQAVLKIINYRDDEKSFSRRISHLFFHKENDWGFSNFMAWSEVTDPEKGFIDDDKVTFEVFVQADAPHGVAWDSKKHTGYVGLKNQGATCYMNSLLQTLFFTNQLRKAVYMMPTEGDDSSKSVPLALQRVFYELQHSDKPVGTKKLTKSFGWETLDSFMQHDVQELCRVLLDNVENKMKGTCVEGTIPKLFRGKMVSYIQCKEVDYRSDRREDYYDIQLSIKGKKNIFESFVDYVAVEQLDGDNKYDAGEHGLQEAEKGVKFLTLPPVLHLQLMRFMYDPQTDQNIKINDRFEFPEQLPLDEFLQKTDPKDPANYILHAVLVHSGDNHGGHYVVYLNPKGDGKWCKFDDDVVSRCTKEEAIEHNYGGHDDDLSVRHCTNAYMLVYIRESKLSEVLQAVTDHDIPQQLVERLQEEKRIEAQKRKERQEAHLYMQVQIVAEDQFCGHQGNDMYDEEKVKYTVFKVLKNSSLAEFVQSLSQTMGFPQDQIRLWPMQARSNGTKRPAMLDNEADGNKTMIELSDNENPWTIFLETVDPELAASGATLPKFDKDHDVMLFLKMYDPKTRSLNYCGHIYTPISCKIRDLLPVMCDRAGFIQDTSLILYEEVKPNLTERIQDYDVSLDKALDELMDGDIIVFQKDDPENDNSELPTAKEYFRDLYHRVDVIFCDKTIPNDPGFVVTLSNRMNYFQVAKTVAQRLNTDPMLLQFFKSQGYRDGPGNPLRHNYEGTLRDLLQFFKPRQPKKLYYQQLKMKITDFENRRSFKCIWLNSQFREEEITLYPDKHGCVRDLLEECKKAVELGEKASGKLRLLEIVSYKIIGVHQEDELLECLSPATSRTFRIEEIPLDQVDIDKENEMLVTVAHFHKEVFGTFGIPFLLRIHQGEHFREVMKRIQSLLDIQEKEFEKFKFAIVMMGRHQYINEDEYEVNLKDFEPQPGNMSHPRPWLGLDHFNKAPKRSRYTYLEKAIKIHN

Homo sapiens = organism: Homo sapiens; assay: Binding affinity to MTSL-labeled USP7CD-CTP N1102C mutant (unknown origin) expressed in Escherichia coli BL21(DE3) assessed as complex formation of compound and CTP with switching loop region of USP7 at 200 uM by CPMG spectral analysis; conditions: filed as activator
[3] = biological target: T1, Ubiquitin carboxyl-terminal hydrolase 7; assay: Activation of USP7 catalytic domain (208 to 560 residues) (unknown origin) expressed in Escherichia coli BL21(DE3) assessed as upregulation of Kcat of enzyme using Ub-AMC as substrate at 200 uM preincubated for 15 mins followed by Ub-AMC addition and measured for 1 hr by fluorescence based analysis; conditions: filed as activator, time 75.0 min
Target sequence in this assay (Q93009 whole entry, looked up): as above

[4] = test system: Ubiquitin carboxyl-terminal hydrolase 7 (Homo sapiens), Q93009 [I766T]; conditions: filed as activator, time 15.0 min
Chain of Ubiquitin carboxyl-terminal hydrolase 7 (Homo sapiens), Q93009 [I766T] (Q93009 whole entry I766T, the tested form may be a part): as the sequence (Q93009 whole entry, looked up) above, with I766T counted along it

[5] = biological target: T1, Ubiquitin carboxyl-terminal hydrolase 7; assay: Activation of USP7 catalytic domain (208 to 560 residues) (unknown origin) expressed in Escherichia coli BL21(DE3) assessed as Ub-AMC hydrolysis preincubated for 15 mins followed by Ub-AMC addition and measured every 1 min by fluorescence based analysis
Target sequence in this assay (Q93009 whole entry): as the sequence (Q93009 whole entry, looked up) above

[6] = biological target: T1, Ubiquitin carboxyl-terminal hydrolase 7; assay: Activation of USP7 catalytic domain (208 to 560 residues) (unknown origin) expressed in Escherichia coli BL21(DE3) assessed as decrease in thermal stability of protein at 250 uM by SYPRO orange dye based fluorescence analysis; conditions: filed as activator
Target sequence in this assay (Q93009 whole entry, looked up): as above

[7] = test system: Ubiquitin carboxyl-terminal hydrolase 7 (Homo sapiens), Q93009 [D1080N]; conditions: filed as activator, time 15.0 min
Chain of Ubiquitin carboxyl-terminal hydrolase 7 (Homo sapiens), Q93009 [D1080N] (Q93009 whole entry D1080N): as the sequence (Q93009 whole entry, looked up) above, with D1080N counted along it

[8] = biological target: T1, Ubiquitin carboxyl-terminal hydrolase 7; conditions: filed as activator, time 15.0 min
Target sequence in this assay (Q93009 whole entry, looked up): as the sequence (Q93009 whole entry, looked up) above

Chain of Ubiquitin carboxyl-terminal hydrolase 7 (Homo sapiens), Q93009 [L757P] (Q93009 whole entry L757P): as the sequence (Q93009 whole entry, looked up) above, with L757P counted along it

EC1.5 [1] [µM]	EC1.5 [2] [µM]	Activity (Homo sapiens)	Activity [3]	EC1.5 [4] [µM]	EC50 [5] [µM]	Activity [6]	EC1.5 [7] [µM]	EC1.5 [8] [µM]	SMILES
8.98	5.61	Active	Active	1.27	32.2	Active	6.54	2.19	COc1ccc(CCN2CCC(Nc3nc4ccccc4n3Cc3ccc(F)cc3)CC2)cc1 [ASTEMIZOLE]
		Active							CN[C@H]1CC[C@@H](c2ccc(Cl)c(Cl)c2)c2ccccc21
